Results published in patent publication US20260297080A1, “BICYCLIC COMPOUNDS AS CDK INHIBITORS” (BeOne Medicines I GmbH, priority 2022, published 2026).

What was measured:
CDK1/Cyclin B1 = CDK1/Cyclin B1 (Homo sapiens, UniProt P06493); test: CDK1/Cyclin B1 Biochemical Assay (TR-FRET), 0.015 mM ATP; conditions: 0.15 μM Rb (Ser780)-biotin substrate, pH7.0, 60 min preincubation, 120 min reaction, room temperature
Method in brief: (§1)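 Phosphorylation of a biotin-tagged Rb Ser780 peptide (0.15 μM) is measured by time-resolved FRET between a europium-labelled phospho-specific antibody and streptavidin-XL665. Compound (0–10 μM) sits with enzyme 60 min first; the kinase reaction then proceeds 120 min at room temperature, pH 7.0.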

CDK2/Cyclin E1 = CDK2/Cyclin E1 (Homo sapiens, UniProt P24941); test: CDK2/Cyclin E1 Biochemical Assay (TR-FRET), 0.060 mM ATP; conditions: 0.15 μM Rb (Ser780)-biotin substrate, pH7.0, 60 min preincubation, 120 min reaction, room temperature
Method in brief: as §1

CDK1/Cyclin B1, sequence (P06493 whole entry): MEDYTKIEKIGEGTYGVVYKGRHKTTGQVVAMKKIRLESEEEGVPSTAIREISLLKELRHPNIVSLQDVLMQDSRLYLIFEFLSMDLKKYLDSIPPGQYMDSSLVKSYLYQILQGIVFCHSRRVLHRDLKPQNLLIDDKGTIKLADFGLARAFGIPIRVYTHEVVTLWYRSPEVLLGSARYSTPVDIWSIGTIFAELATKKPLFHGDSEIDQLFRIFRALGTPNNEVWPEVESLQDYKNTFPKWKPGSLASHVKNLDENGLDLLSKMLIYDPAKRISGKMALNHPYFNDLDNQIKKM
CDK1/Cyclin B1, sequence (P14635 whole entry partner): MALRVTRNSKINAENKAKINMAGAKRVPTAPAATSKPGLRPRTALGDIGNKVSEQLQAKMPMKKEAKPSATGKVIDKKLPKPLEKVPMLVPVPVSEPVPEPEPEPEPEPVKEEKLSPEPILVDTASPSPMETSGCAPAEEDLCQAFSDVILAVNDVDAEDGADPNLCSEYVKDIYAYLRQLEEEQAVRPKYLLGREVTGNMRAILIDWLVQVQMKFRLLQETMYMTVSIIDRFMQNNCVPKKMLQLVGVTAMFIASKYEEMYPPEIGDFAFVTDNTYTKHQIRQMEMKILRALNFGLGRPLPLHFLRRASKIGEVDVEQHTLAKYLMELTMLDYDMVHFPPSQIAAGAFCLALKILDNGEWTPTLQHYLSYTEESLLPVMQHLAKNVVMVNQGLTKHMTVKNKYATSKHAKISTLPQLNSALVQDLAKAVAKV

SMILES	IC50 (CDK1/Cyclin B1) [nM]	IC50 (CDK2/Cyclin E1) [nM]
CN1c2ccc(Nc3cc([C@@H]4CC[C@H](OC(=O)NC5CC6(CCC6)C5)C4)[nH]n3)cc2CS1(=O)=O (relative stereo) [Example 224, cis-3-(3-((1-methyl-2,2-dioxido-1,3-dihydrobenzo[c]isothiazol-5-yl)amino)-1H-pyrazol-5-yl)cyclopentyl spiro[3.3]heptan-2-ylcarbamate]	2580	29
CNC(=O)O[C@H]1CC[C@@H](c2cc(Nc3ccc4c(c3)CS(=O)(=O)N4C)n[nH]2)C1 (relative stereo) [Example 225, cis-3-(3-((1-methyl-2,2-dioxido-1,3-dihydrobenzo[c]isothiazol-5-yl)amino)-1H-pyrazol-5-yl)cyclopentyl methylcarbamate]	789	87
COCC(C)NC(=O)O[C@H]1CC[C@@H](c2cc(Nc3ccc4c(c3)CS(=O)(=O)N4C)n[nH]2)C1 (relative stereo) [Example 226, cis-3-(3-((1-methyl-2,2-dioxido-1,3-dihydrobenzo[c]isothiazol-5-yl)amino)-1H-pyrazol-5-yl)cyclopentyl(1-methoxypropan-2-yl)carbamate]	77	2
COCC1(NC(=O)O[C@H]2CC[C@@H](c3cc(Nc4ccc5c(c4)CS(=O)(=O)N5C)n[nH]3)C2)CC1 (relative stereo) [Example 228, cis-3-(3-((1-methyl-2,2-dioxido-1,3-dihydrobenzo[c]isothiazol-5-yl)amino)-1H-pyrazol-5-yl)cyclopentyl(1-(methoxymethyl)cyclopropyl)carbamate]	123	9.4
CN1c2ccc(Nc3cc([C@@H]4CC[C@H](OC(=O)NCCC(F)(F)F)C4)[nH]n3)cc2CS1(=O)=O (relative stereo) [Example 230, cis-3-(3-((1-methyl-2,2-dioxido-1,3-dihydrobenzo[c]isothiazol-5-yl)amino)-1H-pyrazol-5-yl)cyclopentyl(3,3,3-trifluoropropyl)carbamate]	78	9.8
CC(NC(=O)O[C@H]1CC[C@@H](c2cc(Nc3ccc4c(c3)CS(=O)(=O)N4C)n[nH]2)C1)C1COC1 (relative stereo) [Example 235, cis-3-(3-((1-methyl-2,2-dioxido-1,3-dihydrobenzo[c]isothiazol-5-yl)amino)-1H-pyrazol-5-yl)cyclopentyl(1-(oxetan-3-yl)ethyl)carbamate]	232	12
CN1c2ccc(Nc3cc([C@@H]4CC[C@H](OC(=O)NC5COC5)C4)[nH]n3)cc2CS1(=O)=O (relative stereo) [Example 236, cis-3-(3-((1-methyl-2,2-dioxido-1,3-dihydrobenzo[c]isothiazol-5-yl)amino)-1H-pyrazol-5-yl)cyclopentyl oxetan-3-ylcarbamate]	320	47
CN1c2ccc(Nc3cc([C@@H]4CC[C@H](OC(=O)NCC5COC5)C4)[nH]n3)cc2CS1(=O)=O (relative stereo) [Example 237, cis-3-(3-((1-methyl-2,2-dioxido-1,3-dihydrobenzo[c]isothiazol-5-yl)amino)-1H-pyrazol-5-yl)cyclopentyl(oxetan-3-ylmethyl)carbamate]	435	46
CN1c2ccc(Nc3cc([C@@H]4CC[C@H](OC(=O)NCC(C)(C)O)C4)[nH]n3)cc2CS1(=O)=O (relative stereo) [Example 238, cis-3-(3-((1-methyl-2,2-dioxido-1,3-dihydrobenzo[c]isothiazol-5-yl)amino)-1H-pyrazol-5-yl)cyclopentyl(2-hydroxy-2-methylpropyl)carbamate]	153	16
CN1c2ccc(Nc3cc([C@@H]4CC[C@H](OC(=O)NC5(C)CCOC5)C4)[nH]n3)cc2CS1(=O)=O (relative stereo) [Example 239, cis-3-(3-((1-methyl-2,2-dioxido-1,3-dihydrobenzo[c]isothiazol-5-yl)amino)-1H-pyrazol-5-yl)cyclopentyl(3-methyltetrahydrofuran-3-yl)carbamate]	158	9.6
Cc1cc2c(cc1Nc1cc([C@@H]3CC[C@H](OC(=O)NC(C)C)C3)[nH]n1)CS(=O)(=O)N2 (relative stereo) [Example 241, 3-(3-((6-methyl-2,2-dioxido-1,3-dihydrobenzo[c]isothiazol-5-yl)amino)-1H-pyrazol-5-yl)cyclopentyl isopropylcarbamate]	4470	128
Cc1c(Nc2cc([C@@H]3CC[C@H](OC(=O)NC(C)C)C3)[nH]n2)ccc2c1CS(=O)(=O)N2C (relative stereo) [Example 243, cis-3-(3-((1,4-dimethyl-2,2-dioxido-1,3-dihydrobenzo[c]isothiazol-5-yl)amino)-1H-pyrazol-5-yl)cyclopentyl isopropylcarbamate]	978	37
Cc1cc2c(cc1Nc1cc([C@@H]3CC[C@H](OC(=O)NC(C)C)C3)[nH]n1)CS(=O)(=O)N2C (relative stereo) [Example 244, cis-3-(3-((1,6-dimethyl-2,2-dioxido-1,3-dihydrobenzo[c]isothiazol-5-yl)amino)-1H-pyrazol-5-yl)cyclopentyl isopropylcarbamate]	7260	1060
Cc1cc(Nc2cc([C@@H]3CC[C@H](OC(=O)NC(C)C)C3)[nH]n2)cc2c1N(C)S(=O)(=O)C2 (relative stereo) [Example 245, cis-3-(3-((1,7-dimethyl-2,2-dioxido-1,3-dihydrobenzo[c]isothiazol-5-yl)amino)-1H-pyrazol-5-yl)cyclopentyl isopropylcarbamate]	941	44
CCCNC(=O)O[C@H]1CC[C@@H](c2cc(Nc3ccc4c(c3)CCS(=O)(=O)N4)n[nH]2)C1 (relative stereo) [Example 247, cis-3-(3-((2,2-dioxido-3,4-dihydro-1H-benzo[c][1,2]thiazin-6-yl)amino)-1H-pyrazol-5-yl)cyclopentyl propylcarbamate]	79	9.7

Now those with a lower IC50 (CDK1/Cyclin B1), led by results:

IC50 (CDK1/Cyclin B1) [nM]	IC50 (CDK2/Cyclin E1) [nM]	SMILES
70	5.1	Cc1cc(Nc2cc([C@@H]3CC[C@H](OC(=O)NC(C)C)C3)[nH]n2)cc2c1NS(=O)(=O)C2 (relative stereo) [Example 242, cis-3-(3-((7-methyl-2,2-dioxido-1,3-dihydrobenzo[c]isothiazol-5-yl)amino)-1H-pyrazol-5-yl)cyclopentyl isopropylcarbamate]
67	4.2	CN1c2ccc(Nc3cc([C@@H]4CC[C@H](OC(=O)NC5(C)COC5)C4)[nH]n3)cc2CS1(=O)=O (relative stereo) [Example 234, cis-3-(3-((1-methyl-2,2-dioxido-1,3-dihydrobenzo[c]isothiazol-5-yl)amino)-1H-pyrazol-5-yl)cyclopentyl(3-methyloxetan-3-yl)carbamate]
49	2.6	CC[C@H](C)NC(=O)O[C@H]1CC[C@@H](c2cc(Nc3ccc4c(c3)CCS(=O)(=O)N4)n[nH]2)C1 (relative stereo) [Example 248, cis-3-(3-((2,2-dioxido-3,4-dihydro-1H-benzo[c][1,2]thiazin-6-yl)amino)-1H-pyrazol-5-yl)cyclopentyl((S)-sec-butyl)carbamate]
35	5.5	CN1c2ccc(Nc3cc([C@@H]4CC[C@H](OC(=O)NC5(C)CC5)C4)[nH]n3)cc2CS1(=O)=O (relative stereo) [Example 223, cis-3-(3-((1-methyl-2,2-dioxido-1,3-dihydrobenzo[c]isothiazol-5-yl)amino)-1H-pyrazol-5-yl)cyclopentyl(1-methylcyclopropyl)carbamate]
30	6.4	CC(CC(F)(F)F)NC(=O)O[C@H]1CC[C@@H](c2cc(Nc3ccc4c(c3)CS(=O)(=O)N4C)n[nH]2)C1 (relative stereo) [Example 229, cis-3-(3-((1-methyl-2,2-dioxido-1,3-dihydrobenzo[c]isothiazol-5-yl)amino)-1H-pyrazol-5-yl)cyclopentyl(4,4,4-trifluorobutan-2-yl)carbamate]
28	3	Cc1c(Nc2cc([C@@H]3CC[C@H](OC(=O)NC(C)C)C3)[nH]n2)ccc2c1CS(=O)(=O)N2 (relative stereo) [Example 240, cis-3-(3-((4-methyl-2,2-dioxido-1,3-dihydrobenzo[c]isothiazol-5-yl)amino)-1H-pyrazol-5-yl)cyclopentyl isopropylcarbamate]
27	12	CC1(NC(=O)O[C@H]2CC[C@@H](c3cc(Nc4ccc5c(c4)CS(=O)(=O)N5)n[nH]3)C2)CC1 (relative stereo) [Example 232, cis-3-(3-((2,2-dioxido-1,3-dihydrobenzo[c]isothiazol-5-yl)amino)-1H-pyrazol-5-yl)cyclopentyl(1-methylcyclopropyl)carbamate]
13	1.5	CN1c2ccc(Nc3cc([C@@H]4CC[C@H](OC(=O)NC56CC(C5)C6)C4)[nH]n3)cc2CS1(=O)=O (relative stereo) [Example 231, cis-3-(3-((1-methyl-2,2-dioxido-1,3-dihydrobenzo[c]isothiazol-5-yl)amino)-1H-pyrazol-5-yl)cyclopentyl bicyclo[1.1.1]pentan-1-ylcarbamate]
10	1.3	CN1c2ccc(Nc3cc([C@@H]4CC[C@H](OC(=O)NC5(C)CCC5)C4)[nH]n3)cc2CS1(=O)=O (relative stereo) [Example 233, cis-3-(3-((1-methyl-2,2-dioxido-1,3-dihydrobenzo[c]isothiazol-5-yl)amino)-1H-pyrazol-5-yl)cyclopentyl(1-methylcyclobutyl)carbamate]
